Experimental data taken from patent US20050090559A1, “Heterocyclically-substituted pentanol derivatives, process for their production and their use as anti-inflammatory agents” (priority 2003, published 2005).

Molecular target: T1, glucocorticoid receptor (GR) (Homo sapiens, UniProt P04150)
T1 construct: made in house; host or cells: Sf9 cells infected with recombinant baculovirus (cytosol preparation)
T1 sequence (P04150 1-777): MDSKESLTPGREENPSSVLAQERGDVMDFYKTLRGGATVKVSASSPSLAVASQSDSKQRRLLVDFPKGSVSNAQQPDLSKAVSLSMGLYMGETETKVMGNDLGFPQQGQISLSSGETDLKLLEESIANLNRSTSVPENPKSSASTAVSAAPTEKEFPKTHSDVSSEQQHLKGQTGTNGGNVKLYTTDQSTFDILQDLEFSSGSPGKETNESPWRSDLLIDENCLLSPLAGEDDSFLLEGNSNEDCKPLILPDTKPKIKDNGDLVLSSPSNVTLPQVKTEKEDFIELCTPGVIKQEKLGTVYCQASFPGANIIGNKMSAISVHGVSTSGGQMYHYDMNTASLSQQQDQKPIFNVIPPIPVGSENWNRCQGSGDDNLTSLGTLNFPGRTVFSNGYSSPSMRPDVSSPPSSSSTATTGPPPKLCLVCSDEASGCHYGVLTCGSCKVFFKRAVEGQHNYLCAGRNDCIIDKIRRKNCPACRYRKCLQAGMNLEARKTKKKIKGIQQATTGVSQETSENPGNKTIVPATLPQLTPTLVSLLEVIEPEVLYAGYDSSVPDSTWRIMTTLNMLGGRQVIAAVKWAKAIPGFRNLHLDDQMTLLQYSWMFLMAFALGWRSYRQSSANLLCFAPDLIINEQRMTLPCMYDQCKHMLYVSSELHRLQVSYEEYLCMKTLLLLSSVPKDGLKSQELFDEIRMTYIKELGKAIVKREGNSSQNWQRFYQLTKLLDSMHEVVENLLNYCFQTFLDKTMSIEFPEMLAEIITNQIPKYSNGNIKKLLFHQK
Assay: Binding to recombinantly produced glucocorticoid receptor, cytosol preparations of Sf9 cells, vs [3H]-dexamethasone
Conditions: recombinant GR
Excerpt: The binding of the substances to the glucocorticoid receptor (GR) and other steroid hormone receptors (mineral corticoid receptor (MR), progesterone receptor (PR) and androgen receptor (AR)) is examined with the aid of recombinantly produced receptors. Cytosol preparations of Sf9 cells, which had been infected with recombinant baculoviruses, which code for the GR, are used for the binding studies. In comparison to reference substance [^3H]-dexamethasone, the substances show a high to very high affinity to GR.
Moreover, the compounds of formula (I) substituted by quinazolines, quinoxalines, cinnolines, indazoles, phthalazines, naphthyridines, benzothiazoles, dihydroindolones, dihydroisoindolones, benzimidazoles and indoles that are described here show a high selectivity for the glucocorticoid receptor.

| IC50 [nM] | SMILES |
| --- | --- |
| 1.8 | COc1ccc(F)cc1C(C)(C)CC(O)(CNc1cccc2nc(C)ncc12)C(F)(F)F (centres unmarked) [Example 2, 4-(5-Fluoro-2-methoxyphenyl)-4-methyl-1-(2-methylquinazolin-5-ylamino)-2-(trifluoromethyl)-pentan-2-ol] |
| 10 | COc1cc(Cl)ccc1C(C)(C)CC(O)(CNc1ccnc2nc(C)ccc12)C(F)(F)F (centres unmarked) [Example 52, 4-(4-Chloro-2-methoxyphenyl)-4-methyl-1-(2-methyl-1,8-naphthyridin-5-ylamino)-2-(trifluoromethyl)pentan-2-ol] |
